For test [1], the system named is ALOMY. The test is described as follows: Pre-emergence action against ALOMY. The format is in vivo, Alopecurus myosuroides. As to conditions: Alopecurus myosuroides, 504 h; dosage 320 g/ha; pre-emergence; scored visually after 3 weeks vs untreated controls; 100% = plants have died, 0% = like control plants; read-out: Pre-emergence action against ALOMY (herbicidal activity in percent). The method, boiled down:
(§1)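 Seeds sown in sandy loam in wood-fiber pots and covered with soil. Greenhouse growth; visual damage scored after 3 weeks versus untreated controls (100% = dead, 0% = like control).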

Test [2] has as its system PHBPU. The test is described as follows: Post-emergence action against PHBPU. The settings on record: Ipomoea purpurea, 504 h; post-emergence, dosage 80 g/ha. The format is in vivo, Pharbitis purpurea. An outline of the steps: (§2)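 Weeds grown in sandy loam in greenhouse, treated at one-leaf stage (2–3 weeks after sowing) with WP or EC formulations sprayed as aqueous suspension/emulsion at 600 to […] water with 0.2% wetting agent. Visual rating after about 3 weeks versus untreated controls, as % herbicidal action (100% = plants dead, 0% = like control).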

For test [3], the system named is AMARE. The test is described as follows: Post-emergence action against AMARE. As to conditions: Amaranthus retroflexus, 504 h; post-emergence, dosage 80 g/ha, visual assessment about 3 weeks after treatment vs untreated controls; read-out: Post-emergence action against AMARE (herbicidal action in percent). The format is in vivo, Amaranthus retroflexus. An outline of the steps: as §2

Test [4] has as its system AVEFA. The test is described as follows: Pre-emergence action against AVEFA. The settings on record: Avena fatua, 504 h, dosage 320 g/ha, scored visually after 3 weeks vs untreated controls, read-out: Pre-emergence action against AVEFA (herbicidal activity). The format is in vivo, Avena fatua. The method, boiled down: as §1
A further test deals with VERPE. Nature of the test: Post-emergence action against VERPE. The test is classed as in vivo, Veronica persica. As to conditions: Veronica persica, 504 h, dosage 80 g/ha. The method, boiled down:
as §2

The test system of test [5] is AVEFA. Nature of the test: Post-emergence action against AVEFA. The format is in vivo, Avena fatua. The settings on record: Avena fatua, 504 h; post-emergence, dosage 80 g/ha, visual assessment about 3 weeks after treatment vs untreated controls; read-out: Post-emergence action against AVEFA (herbicidal action in percent). The method, boiled down: as §2
In test [6] the test system is MATIN. The test is described as follows: Post-emergence action against MATIN. The test is classed as in vivo, Matricaria inodora. The settings on record: Tripleurospermum inodorum, 504 h; post-emergence, dosage 80 g/ha, visual assessment about 3 weeks after treatment vs untreated controls; read-out: Post-emergence action against MATIN (herbicidal action in percent). An outline of the steps: as §2

In test [7] the test system is VIOTR. The test is described as follows: Pre-emergence action against VIOTR. The test is classed as in vivo, Viola tricolor. As to conditions: Viola tricolor, 504 h; Dosage 320 g/ha, pre-emergence. An outline of the steps: as §1
Test [8] deals with ALOMY. The test is described as follows: Post-emergence action against ALOMY. The settings on record: Alopecurus myosuroides, 504 h; Dosage 80 g/ha, post-emergence. The test is classed as in vivo, Alopecurus myosuroides. The method, boiled down: as §2
Test [9] concerns ECHCG. The test is described as follows: Pre-emergence action against ECHCG. The format is in vivo, Echinochloa crus-galli. As to conditions: Echinochloa crus-galli, 504 h; pre-emergence, dosage 320 g/ha, scored visually after 3 weeks vs untreated controls; read-out: Pre-emergence action against ECHCG (herbicidal activity). The method, boiled down: as §1
Test [10] relates to SETVI. The test is described as follows: Post-emergence action against SETVI. The format is in vivo, Setaria viridis. The settings on record: Setaria viridis, 504 h; post-emergence, dosage 80 g/ha, visual assessment about 3 weeks after treatment vs untreated controls; read-out: Post-emergence action against SETVI (herbicidal action in percent). The method, boiled down: as §2
Test [11] concerns ABUTH. Nature of the test: Post-emergence action against ABUTH. The test is classed as in vivo, Abutilon theophrasti. As to conditions: Abutilon theophrasti, 504 h; post-emergence, dosage 80 g/ha, visual assessment about 3 weeks after treatment vs untreated controls; read-out: Post-emergence action against ABUTH (herbicidal action in percent). An outline of the steps:
as §2

Test [12] relates to CYPES. Nature of the test: Post-emergence action against CYPES. The format is in vivo, Cyperus esculentus. The settings on record: Cyperus esculentus, 504 h; post-emergence, dosage 80 g/ha, visual assessment about 3 weeks after treatment vs untreated controls; read-out: Post-emergence action against CYPES (herbicidal action in percent). An outline of the steps: as §2
Test [13] has as its system SETVI. The test is described as follows: Pre-emergence action against SETVI. The format is in vivo, Setaria viridis. As to conditions: Setaria viridis, 504 h; pre-emergence, dosage 320 g/ha, scored visually after 3 weeks vs untreated controls; read-out: SETVI (Table B8, pre-emergence herbicidal activity). The method, boiled down: as §1
Test [14] concerns MATIN. The test is described as follows: Pre-emergence action against MATIN. The test is classed as in vivo, Matricaria inodora. The settings on record: Tripleurospermum inodorum, 504 h; Dosage 320 g/ha, pre-emergence. The method, boiled down:
as §1

The test system of test [15] is ECHCG. The test is described as follows: Post-emergence action against ECHCG. The test is classed as in vivo, Echinochloa crus-galli. The settings on record: Echinochloa crus-galli, 504 h; post-emergence, dosage 80 g/ha, visual assessment about 3 weeks after treatment vs untreated controls; read-out: Post-emergence action against ECHCG (herbicidal action in percent). The method, boiled down:
as §2

In test [16] the test system is PHBPU. The test is described as follows: Pre-emergence action against PHBPU. The format is in vivo, Pharbitis purpurea. As to conditions: Ipomoea purpurea, 504 h; Dosage 320 g/ha, pre-emergence. An outline of the steps:
as §1

For a further test, the system named is LOLMU. The test is described as follows: Post-emergence action against LOLMU. The settings on record: Lolium multiflorum, 504 h, dosage 80 g/ha, visual assessment about 3 weeks after treatment vs untreated controls, read-out: Post-emergence action against LOLMU (herbicidal action in percent). The test is classed as in vivo, Lolium multiflorum. The procedure:
Seeds of monocotyledonous and dicotyledonous weed and crop plants are laid out in sandy loam soil in wood-fiber pots, covered with soil and cultivated in a greenhouse under good growth conditions. 2 to 3 weeks after sowing, the test plants are treated at the one-leaf stage. The compounds of the invention, formulated in the form of wettable powders (WP) or as emulsion concentrates (EC), are then sprayed onto the green parts of the plants in the form of an aqueous suspension or emulsion at a water application rate equating to […], with addition of 0.2% wetting agent. After the test plants have been left to stand in the greenhouse under optimal growth conditions for about 3 weeks, the action of the preparations is assessed visually in comparison to untreated controls (herbicidal action in percent (%): 100% activity=the plants have died, 0% activity=like control plants). […] At the same time, inventive compounds leave Gramineae crops such as barley, wheat, rye, millet/Sorghum, corn or rice virtually undamaged when applied post-emergence, even at high active ingredient dosages. In addition, some substances are also harmless to dicotyledonous crops such as soya, cotton, oilseed rape, sugar beet or potatoes. Some of the compounds according to the invention have high selectivity and are therefore suitable for controlling unwanted vegetation in agricultural crops by the post-emergence method. The data of Tables B18 to B34 below illustrate, in an exemplary manner, the […] herbicidal action of the compounds according to the invention, the herbicidal activity being stated in percent.

Test [17] deals with ABUTH. Nature of the test: Pre-emergence action against ABUTH. The format is in vivo, Abutilon theophrasti. The settings on record: Abutilon theophrasti, 504 h; pre-emergence, dosage 320 g/ha, scored visually after 3 weeks vs untreated controls; read-out: Pre-emergence action against ABUTH (herbicidal activity). An outline of the steps: as §1
In test [18] the test system is CYPES. The test is described as follows: Pre-emergence action against CYPES. The settings on record: Cyperus esculentus, 504 h; pre-emergence, dosage 320 g/ha, scored visually after 3 weeks vs untreated controls; read-out: Pre-emergence action against CYPES (herbicidal activity). The test is classed as in vivo, Cyperus esculentus. The method, boiled down: as §1
The test system of another test is STEME. The test is described as follows: Post-emergence action against STEME. The format is in vivo, Stellaria media. As to conditions: Stellaria media, 504 h; post-emergence, dosage 80 g/ha. An outline of the steps:
as §2

Test [19] relates to VIOTR. Nature of the test: Post-emergence action against VIOTR. The test is classed as in vivo, Viola tricolor. As to conditions: Viola tricolor, 504 h; post-emergence, dosage 80 g/ha. An outline of the steps: as §2
In test [20] the test system is AMARE. Nature of the test: Pre-emergence action against AMARE. The format is in vivo, Amaranthus retroflexus. The settings on record: Amaranthus retroflexus, 504 h; pre-emergence, dosage 320 g/ha, scored visually after 3 weeks vs untreated controls; read-out: Pre-emergence action against AMARE (herbicidal activity). An outline of the steps:
as §1

In the case of `Cc1c(C(=O)Nc2nnnn2C)ccc(C(F)(F)F)c1C(=O)C1CC1` [1-18, 3-(cyclopropylcarbonyl)-2-methyl-N-(1-methyl-1H-tetrazol-5-yl)-4-(trifluoromethyl)benzamide], the pest or weed control at 320 g/ha with ALOMY [1], in the test on AVEFA [4], in the test with VIOTR [7], with ECHCG [9], with SETVI [13] and in the test with MATIN [14] was 100% each time. Moreover, the pest or weed control at 320 g/ha with PHBPU [16] was found to be 90%; with ABUTH [17], 100%; in the test with CYPES [18] it was 90%; in the test with AMARE [20], 100%. The pest or weed control at 80 g/ha was 100% in the test with PHBPU [2]; 90% in the test with AMARE [3]; 100% in the test on VERPE; 100% in the test on AVEFA [5]; 100% in the test on MATIN [6]; 100% with ALOMY [8]. The pest or weed control at 80 g/ha is 100% in the test on SETVI [10]; 80% with ABUTH [11]; 90% in the test with CYPES [12]; 90% with ECHCG [15]; 90% in the test on LOLMU; 100% in the test with STEME. The compound also displayed a pest or weed control at 80 g/ha in the test with VIOTR [19] of 100%.

The values are drawn from US11051515B2, “3-acyl-benzamides and their use as herbicides” (Bayer Aktiengesellschaft, priority 2017, dated 2021).
